Active and inactive are the calls of the source.
Tests used:
[1] = molecular target: Serine/threonine-protein phosphatase PP1-alpha catalytic subunit (Homo sapiens, UniProt P62136); assay: PP1 phosphatase inhibitors, dose response, biochemical, fluorescence (AID 2403);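 further: phosphatase turnover of OMFP into fluorescent 3-O-methylfluorescein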
[2] = molecular target: T1, Serine/threonine-protein phosphatase (Homo sapiens, UniProt Q9BPW0); assay: Counterscreen for inhibitors of PP1: fluorescence-based biochemical high throughput dose response assay to identify inhibitors of Protein Phosphatase 5 (PP5). [Related pubchem assays: 2034 (Summary (PP5 inhibitors)), 1987 (PP5 inhibitors in singlate), 2235 (PP1 inhibitors in singlate)]
T1 sequence (Q9BPW0 whole entry): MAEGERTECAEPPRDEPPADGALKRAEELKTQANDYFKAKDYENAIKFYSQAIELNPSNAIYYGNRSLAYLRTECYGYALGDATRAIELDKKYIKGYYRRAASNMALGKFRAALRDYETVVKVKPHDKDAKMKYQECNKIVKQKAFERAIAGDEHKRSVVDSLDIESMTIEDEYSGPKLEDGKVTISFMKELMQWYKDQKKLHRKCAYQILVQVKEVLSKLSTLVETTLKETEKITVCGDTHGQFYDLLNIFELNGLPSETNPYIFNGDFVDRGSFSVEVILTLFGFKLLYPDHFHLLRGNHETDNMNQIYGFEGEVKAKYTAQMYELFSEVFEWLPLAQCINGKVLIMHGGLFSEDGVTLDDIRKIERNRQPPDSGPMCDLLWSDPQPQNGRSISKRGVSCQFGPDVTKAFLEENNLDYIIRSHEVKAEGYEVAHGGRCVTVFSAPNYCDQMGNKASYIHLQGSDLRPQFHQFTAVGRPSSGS

Protein Rev = Protein Rev (Human immunodeficiency virus type 1 group M subtype B (isolate HXB2)(HIV-1), UniProt P04618); assay: inhibitors of Rev binding to RRE RNA, dose response, biochemical, fluorescence polarization, HIV-1 (AID 434976); set-up: species or system Human immunodeficiency virus 1
Protein Rev, sequence (P04618 whole entry): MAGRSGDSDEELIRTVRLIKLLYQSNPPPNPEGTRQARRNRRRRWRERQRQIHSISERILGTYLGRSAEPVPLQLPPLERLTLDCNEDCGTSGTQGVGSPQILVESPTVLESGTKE

[3] = molecular target: Female germline-specific tumor suppressor gld-1 (Caenorhabditis elegans, UniProt Q17339); assay: inhibitors of GLD-1 binding to TGE RNA, dose response, biochemical, fluorescence polarization, C. elegans (AID 2802);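 further: fluorescence polarization of labeled TGE RNA bound by purified gld-1 protein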
Female germline-specific tumor suppressor gld-1, sequence (Q17339 whole entry): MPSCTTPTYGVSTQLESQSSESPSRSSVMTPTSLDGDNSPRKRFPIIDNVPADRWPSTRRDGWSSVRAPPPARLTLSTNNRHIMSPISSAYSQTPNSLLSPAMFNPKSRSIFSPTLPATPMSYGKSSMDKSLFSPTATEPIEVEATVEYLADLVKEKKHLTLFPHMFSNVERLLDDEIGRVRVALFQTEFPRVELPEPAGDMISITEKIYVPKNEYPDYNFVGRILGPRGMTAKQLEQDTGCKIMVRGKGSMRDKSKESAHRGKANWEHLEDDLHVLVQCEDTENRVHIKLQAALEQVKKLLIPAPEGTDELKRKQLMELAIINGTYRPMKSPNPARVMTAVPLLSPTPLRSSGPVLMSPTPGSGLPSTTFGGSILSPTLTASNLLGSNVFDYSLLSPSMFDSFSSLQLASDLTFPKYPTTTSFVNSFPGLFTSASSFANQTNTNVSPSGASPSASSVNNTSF

[4] = molecular target: T2, Polyadenylate-binding protein 1 (Homo sapiens, UniProt P11940); assay: PABP1 MLLE–PAM2 interaction inhibitors, dose response, miRNA deadenylation inhibitor project, biochemical, fluorescence polarization, Cy5-PAM2 peptide, secondary (AID 602260); assay type: functional; details: read-out: IC50_Mean
T2 sequence (P11940 whole entry): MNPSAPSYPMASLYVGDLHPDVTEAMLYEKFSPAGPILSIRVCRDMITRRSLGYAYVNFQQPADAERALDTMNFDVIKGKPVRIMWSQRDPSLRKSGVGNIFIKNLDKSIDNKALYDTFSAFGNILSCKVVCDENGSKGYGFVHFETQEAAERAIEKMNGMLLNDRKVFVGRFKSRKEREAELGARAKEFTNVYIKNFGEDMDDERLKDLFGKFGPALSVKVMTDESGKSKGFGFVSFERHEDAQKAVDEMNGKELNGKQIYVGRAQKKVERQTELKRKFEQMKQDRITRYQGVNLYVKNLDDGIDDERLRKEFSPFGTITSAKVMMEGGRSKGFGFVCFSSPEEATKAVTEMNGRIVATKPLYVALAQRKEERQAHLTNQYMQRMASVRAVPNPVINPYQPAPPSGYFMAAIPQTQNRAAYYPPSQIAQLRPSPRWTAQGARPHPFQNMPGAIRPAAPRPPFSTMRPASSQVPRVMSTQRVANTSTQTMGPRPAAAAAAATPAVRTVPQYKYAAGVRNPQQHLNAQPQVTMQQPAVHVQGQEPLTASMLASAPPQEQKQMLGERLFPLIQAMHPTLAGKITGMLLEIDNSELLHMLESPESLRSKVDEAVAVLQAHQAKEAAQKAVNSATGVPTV

[5] = molecular target: T2, Polyadenylate-binding protein 1; assay: PABP1 MLLE–PAM2 binding inhibitor potency, dose response, biochemical, fluorescence polarization, FITC-PAM2 peptide (AID 602259); assay type: functional; details: read-out: IC50_Mean
[6] = molecular target: Melanin-concentrating hormone receptor 1 (Homo sapiens, UniProt Q99705); assay: Late-stage fluorescence-based counterscreen for antagonists of the G-protein coupled receptor 7 (GPR7): cell-based dose response assay to identify antagonists of the melanin-concentrating hormone receptor 1 (MCHR1). [Related pubchem assays (depositor defined):AID1861, AID1880, AID1952, AID2148, AID2251, AID2257, AID485339]; assay type: functional;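 further: stimulated with 30 nM MCH peptide agonist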
Melanin-concentrating hormone receptor 1, sequence (Q99705 whole entry): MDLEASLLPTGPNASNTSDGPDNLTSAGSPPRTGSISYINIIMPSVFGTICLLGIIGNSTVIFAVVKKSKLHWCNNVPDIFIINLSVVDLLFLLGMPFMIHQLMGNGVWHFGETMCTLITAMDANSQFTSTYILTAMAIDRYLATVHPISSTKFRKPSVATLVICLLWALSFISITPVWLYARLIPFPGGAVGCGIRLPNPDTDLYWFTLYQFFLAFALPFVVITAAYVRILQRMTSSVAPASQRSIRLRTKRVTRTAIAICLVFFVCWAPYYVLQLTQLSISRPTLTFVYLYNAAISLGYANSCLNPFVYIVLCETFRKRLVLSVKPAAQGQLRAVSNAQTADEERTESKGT

[7] = molecular target: Voltage-gated N-type calcium channel alpha-1B subunit/Amyloid beta A4 precursor protein-binding family A member 1 (Homo sapiens, UniProt Q00975+Q02410); assay: disruptors of Mint-PDZ/N-type channel peptide interaction – biochemical, HTRF, set 2, SAR follow-up (AID 434980); assay type: functional
Beta-galactosidase = Beta-galactosidase (Escherichia coli, UniProt Q8VNN2); assay: beta-galactosidase enzyme inhibitors and activators, dose response, artefact control for CCR6 antagonist project, biochemical, E. coli enzyme, set 3 (AID 504712); assay type: functional
Beta-galactosidase, sequence (Q8VNN2 whole entry): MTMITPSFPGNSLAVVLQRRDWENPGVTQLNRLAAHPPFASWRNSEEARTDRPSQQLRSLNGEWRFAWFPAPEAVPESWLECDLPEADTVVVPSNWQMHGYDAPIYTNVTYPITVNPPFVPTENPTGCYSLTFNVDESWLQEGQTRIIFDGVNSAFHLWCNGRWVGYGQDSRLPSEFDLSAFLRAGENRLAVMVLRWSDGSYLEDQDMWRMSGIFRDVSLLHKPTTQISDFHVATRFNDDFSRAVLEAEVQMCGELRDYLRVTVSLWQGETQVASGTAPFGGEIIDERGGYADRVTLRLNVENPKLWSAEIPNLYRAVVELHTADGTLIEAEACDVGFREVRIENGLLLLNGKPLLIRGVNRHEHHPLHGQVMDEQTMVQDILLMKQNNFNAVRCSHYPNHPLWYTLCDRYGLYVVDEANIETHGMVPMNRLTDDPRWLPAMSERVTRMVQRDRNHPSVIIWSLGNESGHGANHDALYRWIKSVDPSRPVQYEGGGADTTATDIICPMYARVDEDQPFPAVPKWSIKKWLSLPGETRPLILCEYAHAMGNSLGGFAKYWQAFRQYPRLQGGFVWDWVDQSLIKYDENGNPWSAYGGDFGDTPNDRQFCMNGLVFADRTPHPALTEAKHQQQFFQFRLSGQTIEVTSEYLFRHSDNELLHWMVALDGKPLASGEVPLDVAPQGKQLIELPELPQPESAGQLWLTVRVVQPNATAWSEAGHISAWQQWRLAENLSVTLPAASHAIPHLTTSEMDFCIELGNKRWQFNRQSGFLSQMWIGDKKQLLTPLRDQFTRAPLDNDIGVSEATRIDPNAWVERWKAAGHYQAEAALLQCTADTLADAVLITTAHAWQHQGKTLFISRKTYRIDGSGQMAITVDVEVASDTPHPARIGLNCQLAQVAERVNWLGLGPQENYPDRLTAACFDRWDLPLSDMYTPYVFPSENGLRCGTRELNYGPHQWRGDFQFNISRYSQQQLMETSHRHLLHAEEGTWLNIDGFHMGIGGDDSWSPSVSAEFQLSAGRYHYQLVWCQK

[8] = tested on: Streptococcus sp. 'group A'; assay: growth inhibition of control SK(-) GAS strain, dose response, counter-screen for streptokinase expression inhibitor project, luminescence, kanamycin, BacTiterGlo, confirmation (AID 1900); assay type: functional, organism-based
Streptokinase A = molecular target: T3, Streptokinase A (Streptococcus pyogenes serotype M1, UniProt P10520); assay: S. pyogenes streptokinase expression inhibitors, potency, dose response, plasminogen activation absorbance, OD405 (AID 1914); assay type: functional, Streptococcus pyogenes M1 GAS;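 further: secreted streptokinase activity via plasminogen activation per viability signal from cell pellet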
T3 sequence (P10520 whole entry): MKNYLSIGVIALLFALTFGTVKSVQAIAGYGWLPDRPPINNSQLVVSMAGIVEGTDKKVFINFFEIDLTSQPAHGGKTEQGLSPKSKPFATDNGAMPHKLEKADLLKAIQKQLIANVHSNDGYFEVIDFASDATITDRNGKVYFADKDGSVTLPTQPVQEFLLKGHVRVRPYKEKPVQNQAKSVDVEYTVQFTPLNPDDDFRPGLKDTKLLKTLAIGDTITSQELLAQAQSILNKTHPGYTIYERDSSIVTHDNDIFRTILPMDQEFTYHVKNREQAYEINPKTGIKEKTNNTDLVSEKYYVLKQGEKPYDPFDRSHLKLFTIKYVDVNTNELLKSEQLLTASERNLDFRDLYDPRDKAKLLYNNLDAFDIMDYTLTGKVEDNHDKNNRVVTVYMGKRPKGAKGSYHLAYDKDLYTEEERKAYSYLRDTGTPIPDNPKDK

NS3 = NS3 (Hepatitis C virus, UniProt A3EZJ3); assay: PubChem AID 2173; set-up: species or system Hepacivirus hominis
NS3, sequence (A3EZJ3 whole entry): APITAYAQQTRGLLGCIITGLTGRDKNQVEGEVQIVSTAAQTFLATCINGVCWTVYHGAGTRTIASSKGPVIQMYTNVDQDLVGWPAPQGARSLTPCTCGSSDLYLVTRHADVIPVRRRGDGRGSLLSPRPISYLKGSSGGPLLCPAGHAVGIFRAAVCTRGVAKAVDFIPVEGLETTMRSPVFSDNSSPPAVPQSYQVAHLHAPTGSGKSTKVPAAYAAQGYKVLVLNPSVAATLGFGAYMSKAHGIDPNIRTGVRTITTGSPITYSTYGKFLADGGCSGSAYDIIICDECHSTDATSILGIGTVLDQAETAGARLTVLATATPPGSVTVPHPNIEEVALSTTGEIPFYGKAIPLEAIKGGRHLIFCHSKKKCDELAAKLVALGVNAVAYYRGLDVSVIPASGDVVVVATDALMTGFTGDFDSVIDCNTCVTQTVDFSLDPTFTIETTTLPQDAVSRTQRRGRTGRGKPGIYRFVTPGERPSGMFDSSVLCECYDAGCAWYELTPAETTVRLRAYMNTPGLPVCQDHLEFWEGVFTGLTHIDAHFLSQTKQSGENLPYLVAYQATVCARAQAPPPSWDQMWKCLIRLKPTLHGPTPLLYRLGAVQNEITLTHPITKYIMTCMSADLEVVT

Streptococcus = assay: Group A Streptococcus viability loss, dose response, counter-screen for streptokinase expression inhibitor project, luminescence, BacTiterGlo (AID 1915); assay type: functional, organism-based;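 further: potency for reduction of bacterial viability or growth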
Nonstructural protein 1 = Nonstructural protein 1 (Influenza A virus, UniProt Q194T2); assay type: functional, Influenza A virus (A/California/07/2009(H1N1))
Nonstructural protein 1, sequence (Q194T2 whole entry): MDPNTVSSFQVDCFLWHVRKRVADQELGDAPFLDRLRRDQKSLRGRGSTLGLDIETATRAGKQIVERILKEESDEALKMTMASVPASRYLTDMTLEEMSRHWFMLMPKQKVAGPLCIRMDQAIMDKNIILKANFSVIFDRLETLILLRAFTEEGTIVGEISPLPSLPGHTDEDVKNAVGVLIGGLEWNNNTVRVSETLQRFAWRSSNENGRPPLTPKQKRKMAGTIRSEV

Serine/threonine-protein phosphatase PP1-alpha catalytic subunit, sequence (P62136 whole entry): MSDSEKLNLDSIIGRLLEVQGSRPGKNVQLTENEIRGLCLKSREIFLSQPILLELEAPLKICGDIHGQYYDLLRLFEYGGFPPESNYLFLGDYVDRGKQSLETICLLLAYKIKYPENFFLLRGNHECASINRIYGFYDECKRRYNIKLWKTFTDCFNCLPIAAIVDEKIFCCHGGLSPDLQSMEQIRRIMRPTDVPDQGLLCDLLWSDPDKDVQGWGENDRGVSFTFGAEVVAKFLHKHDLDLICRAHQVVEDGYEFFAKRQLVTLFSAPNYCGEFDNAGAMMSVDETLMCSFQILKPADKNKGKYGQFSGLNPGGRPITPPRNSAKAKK

In the case of `Clc1ccc(-n2nnnc2-c2cnc(-c3ccccn3)nc2-c2cccs2)cc1`, the IC50 [1] is reported as 4.64 µM (active) and the IC50 [2] is reported as > 67 µM (not active).
In the case of `COc1ccc(NS(=O)(=O)c2ccc(Cl)s2)cn1`, the IC50 (Protein Rev) is reported as 6.3 µM (active), the IC50 [3] is reported as 4.54 µM (active) and the IC50 [4] is reported as > 66 µM (inactive). The IC50 [5] was 14.9 µM (active).
In the case of `Cc1ccccc1CN1CCCCC1C(=O)N1CCN(c2ccc([N+](=O)[O-])cc2)CC1` (centres undefined), the IC50 [6] is reported as 5.8 µM (active).
For `CC(C)(C)CCNC(=O)c1cc(-c2ccco2)nc2ccccc12`, the IC50 [7] was > 56.8 µM (inactive).
`COCC/N=c1\scc(-c2ccc3c(c2)NC(=O)CO3)n1/N=C(\C)c1ccc(O)cc1` was tested, and the IC50 (Beta-galactosidase) was > 66.6 µM (inactive).
For `COc1ccc(/C=N\NC(=O)c2cc(O)c(O)c(O)c2)cc1COc1ccc(C(=O)OCC(C)C)cc1`, the EC50 [8] was 6.26 µM (active), the EC50 (Streptokinase A) was > 150 µM (not active) and the IC50 (NS3) was 4.44 µM (active). The EC50 (Streptococcus) was 6.69 µM (active) and the IC50 (Nonstructural protein 1) was 78.6 µM (active).
